Our source for the Ki values is patent US9266881B2, “Triazolopyridinone PDE10 inhibitors” (Merck Sharp & Dohme Corp., priority 2011, dated 2016).

The target of this assay is human PDE10A2 (Homo sapiens (Human), UniProt Q9Y233). Briefly: PDE10 fluorescence polarization (IMAP FP) inhibition assay. In kind it is biochemical. As for the experimental part: The activity of the compounds in accordance with the present invention as PDE10 inhibitors may be readily determined without undue experimentation using a fluorescence polarization (FP) methodology that is well known in the art (Huang, W., et al., J. Biomol Screen, 2002, 7: 215).
In a typical experiment the PDE10 inhibitory activity of the compounds of the present invention was determined in accordance with the following experimental method. PDE10A2 was amplified from human fetal brain cDNA (Clontech, Mountain View, Calif.) using a forward primer corresponding to nucleotides 56-77 of human PDE10A2 (Accession No. AF127480, Genbank Identifier 4894716), containing a Kozak consensus sequence, and a reverse primer corresponding to nucleotides 2406-2413 of human PDE10A2 (Accession No. AF127480, Genbank Identifier 4894716). Amplification with Easy-A polymerase (Stratagene, La Jolla, Calif.) was 95° C. for 2 minutes followed by thirty three cycles of 95° C. for 40 seconds, 55° C. for 30 seconds, and 72° C. for 2 minutes 48 seconds. Final extension was 72° C. for 7 minutes. The PCR product was TA cloned into pcDNA3.2-TOPO (Invitrogen, Carlsbad, Calif.) according to standard protocol. AD293 cells with 70-80% confluency were transiently transfected with human PDE10A2/pcDNA3.2-TOPO using Lipofectamine 2000 according to manufacturer specifications (Invitrogen, Carlsbad, Calif.). Cells were harvested 48 hours post-transfection and lysed by sonication (setting 3, 10×5 sec pulses) in a buffer containing 20 mM HEPES, 1 mM EDTA and protease inhibitor cocktail (Roche). Lysate was collected by centrifugation at 75,000×g for 20 minutes. Supernatant containing the cytoplasmic fraction was used for evaluation of PDE10A2 activity. The fluorescence polarization assay for cyclic nucleotide phosphodiesterases was performed using an IMAP® FP kit supplied by Molecular Devices, Sunnyvale, Calif. (product #R8139). IMAP® technology has been applied previously to phosphodiesterase assays (Huang, W., et al., J. Biomol Screen, 2002, 7: 215). Assays were performed at room temperature in 384-well microtiter plates with an incubation volume of 20.2 μl. Solutions of test compounds were prepared in DMSO and serially diluted with DMSO to yield 8 μL of each of 10 solutions differing by 3-fold in concentration, at 32 serial dilutions per plate. 100% inhibition is determined using a known PDE10 inhibitor, which can be any compound that is present at 5,000 times its Ki value in the assay described as follows, such as papaverine (see Siuciak, et al. Neuropharmacology (2006) 51:386-396; Becker, et al. Behav Brain Res (2008) 186(2):155-60; Threlfell, et al., J Pharmacol Exp Ther (2009) 328(3):785-795), 2-{4-[pyridin-4-yl-1-(2,2,2-trifluoroethyl)-1H-pyrazol-3-yl]phenoxymethyl}quinoline succinic acid or 2-[4-(1-methyl-4-pyridin-4-yl-1H-pyrazol-3-yl)-phenoxymethyl]quinoline succinic acid (see Schmidt, et al. J Pharmacol Exp Ther (2008) 325:681-690; Threlfell, et al., J Pharmacol Exp Ther (2009) 328(3): 785-795). 0% of inhibition is determined by using DMSO (1% final concentrations).
A Labcyte Echo 555 (Labcyte, Sunnyvale, Calif.) is used to dispense 200 nL from each well of the titration plate to the 384 well assay plate. A solution of enzyme (1/1600 dilution from aliquots; sufficient to produce 20% substrate conversion) and a separate solution of FAM-labeled cAMP PDE from Molecular Devices (product #R7506), at a final concentration of 50 nM are made in the assay buffer (10 mM Tris HCl, pH 7.2, 10 mM MgCl2, 0.05% NaN3 0.01% Tween-20, and 1 mM DTT). The enzyme and the substrate are then added to the assay plates in two consecutive additions of 10 μL, and then shaken to mix. The reaction is allowed to proceed at room temperature for 30 minutes. A binding solution is then made from the kit components, comprised of 80% Solution A, 20% Solution B and binding reagent at a volume of 1/600 the total binding solution. […]
For orientation: In fluorescence polarisation assays a small probe gives low polarisation when free and higher when bound to something large.

Where [1] appears, read: human PDE10A2 lysate, IMAP FP, 50 nM FAM-labeled cAMP, room temperature, read-out: PDE10A Ki.
Setting [2] is: human PDE10 enzyme, aforementioned assays, read-out: Ki for inhibiting the human PDE10 enzyme (range given).

Where two headings read alike, the source gives them in different places.

As usually defined, the Ki is a measure of affinity in units of concentration, obtained from inhibition or displacement.

Chain of human PDE10A2 (Q9Y233 267-1055): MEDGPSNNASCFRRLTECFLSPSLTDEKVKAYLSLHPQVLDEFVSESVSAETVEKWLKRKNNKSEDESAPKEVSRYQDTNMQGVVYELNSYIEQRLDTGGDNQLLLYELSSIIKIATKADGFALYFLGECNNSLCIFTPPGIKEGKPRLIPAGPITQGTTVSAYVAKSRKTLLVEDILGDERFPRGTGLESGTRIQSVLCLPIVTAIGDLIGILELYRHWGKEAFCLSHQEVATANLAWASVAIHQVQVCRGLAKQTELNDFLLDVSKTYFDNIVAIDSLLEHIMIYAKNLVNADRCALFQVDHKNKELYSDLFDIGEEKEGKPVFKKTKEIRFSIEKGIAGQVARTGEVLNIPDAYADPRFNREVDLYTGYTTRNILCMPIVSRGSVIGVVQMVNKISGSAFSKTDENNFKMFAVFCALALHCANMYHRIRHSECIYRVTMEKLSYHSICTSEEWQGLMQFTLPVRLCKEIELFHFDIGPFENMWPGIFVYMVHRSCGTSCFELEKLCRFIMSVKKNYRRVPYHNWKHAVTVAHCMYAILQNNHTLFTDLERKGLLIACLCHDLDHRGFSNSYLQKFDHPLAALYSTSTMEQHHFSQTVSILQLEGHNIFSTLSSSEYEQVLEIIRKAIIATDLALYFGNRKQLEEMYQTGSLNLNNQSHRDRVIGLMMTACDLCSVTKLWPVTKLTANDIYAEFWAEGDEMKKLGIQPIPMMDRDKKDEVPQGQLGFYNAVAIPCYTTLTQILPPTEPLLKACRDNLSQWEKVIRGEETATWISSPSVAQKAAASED

Turning to `O=c1n(CCc2ccc3ccccc3n2)nc2c(Br)cccn12` [Compound 1-6], the Ki under setting [1] amounted to 0.037 µM.

`O=c1n(CCc2ccc3ccccc3n2)nc2cccc(Br)n12` [Compound 2-4, 5-bromo-2-(2-quinolin-2-ylethyl)[1,2,4]triazolo[4,3-a]pyridin-3(2H)-one]: the Ki under setting [1] amounted to 0.059 µM.

As for `O=c1n(CCc2ccc3ccccc3n2)nc2ccc(Br)cn12` [Compound 3-4, 6-bromo-2-(2-quinolin-2-ylethyl)[1,2,4]triazolo[4,3-a]pyridin-3(2H)-one], the Ki under setting [1] is 0.155 µM.

Consider `O=c1n(CCc2ccc3ccccc3n2)nc2c(-c3ncco3)cccn12` [Compound 4-1, 8-(1,3-oxazol-2-yl)-2-(2-quinolin-2-ylethyl)[1,2,4]triazolo[4,3-a]pyridin-3(2H)-one], for which, under setting [1], the Ki worked out at 0.022 µM.

With `O=c1n(CCc2ccc3ccccc3n2)nc2cccc(-c3ccncc3)n12` [Compound 5-1, 5-pyridin-4-yl-2-(2-quinolin-2-ylethyl)[1,2,4]triazolo[4,3-a]pyridin-3(2H)-one], the Ki by setting is: under setting [1], 0.0044 µM; under setting [2], 0.0001 to 0.01 µM.

`O=c1n(CCc2ccc3ccccc3n2)nc2cccc(N3CCOCC3)n12` [Compound 6-1, 5-morpholin-4-yl-2-(2-quinolin-2-ylethyl)[1,2,4]triazolo[4,3-a]pyridin-3(2H)-one]: the Ki runs as follows: under setting [1], 0.0025 µM; under setting [2], 0.0001 to 0.01 µM.

Consider `COc1ccc(C(C)(O)c2cccc3nn(CCc4ccc5ccccc5n4)c(=O)n23)cc1` (stereo not shown) [Compound 7-2, 5-[1-hydroxy-1-(4-methoxyphenyl)ethyl]-2-(2 - quinolin-2-ylethyl)[1,2,4]triazolo[4,3-a]pyridin-3(2H)-one], for which, under setting [1], the inhibition constant (Ki) turned out to be 0.011 µM.

Consider `O=C(Nc1cccnc1)c1cccc2nn(CCc3ccc4ccccc4n3)c(=O)n12` [Compound 8-2, 3-oxo-N-pyridin-3-yl-2-(2-quinolin-2-ylethyl)-2,3-dihydro[1,2,4]triazolo[4,3-a]pyridine-5-carboxamide], for which the inhibition constant (Ki) under setting [1] is 0.097 µM.

For the molecule `O=c1n(CCc2ccc3ccccc3n2)nc2ccc(-c3cccnc3)cn12` [Compound 9-1, 6-pyridin-3-yl-2-(2-quinolin-2-ylethyl)[1,2,4]triazolo[4,3-a]pyridin-3(2H)-one], the Ki under setting [1] was 0.51 µM.

On to `O=c1n(CCc2ccc3ncccc3n2)nc2c(-c3ccncc3)cccn12` [Compound 10-4, 2-[2-(1,5-naphthyridin-2-yl)ethyl]-8-pyridin-4-yl[1,2,4]triazolo[4,3-a]pyridin-3(2H)-one], for which the Ki under setting [1] is 0.103 µM.

Consider `Cn1cc(-c2ccccc2)nc1CCn1nc2cccc(Br)n2c1=O` [Compound 11-4, 5-bromo-2-[2-(1-methyl-4-phenyl-1H-imidazol-2-yl)ethyl][1,2,4]triazolo[4,3-a]pyridin-3(2H)-one], for which the Ki is 0.0072 µM under setting [1] and 0.0001 to 0.01 µM under setting [2].

As to `Cn1cc(-c2ccccc2)nc1CCn1nc2cccc(N3CCOCC3)n2c1=O` [Compound 12-1, 2-[2-(1-methyl-4-phenyl-1H-imidazol-2-yl)ethyl]-5-morpholin-4-yl[1,2,4]triazolo[4,3-a]pyridin-3(2H)-one], the Ki is 0.00041 µM under setting [1] and 0.0001 to 0.01 µM under setting [2].

Regarding `O=c1n(C[C@@H]2C[C@H]2c2ccccn2)nc2cccc(N3CCOCC3)n12` [Compound 13-6, 5-morpholino-2-(((1R,2R)-2-(pyridin-2-yl)cyclopropyl)methyl)-[1,2,4]triazolo[4,3-a]pyridin-3(2H)-one], the inhibition constant Ki under setting [1] was determined as 0.546 µM.

`O=c1n(CCc2ccc3ccccc3n2)nc2cccc(-c3cccnc3)n12` [Compound A-1, 5-pyridin-3-yl-2-(2-quinolin-2-ylethyl)[1,2,4]triazolo[4,3-a]pyridin-3(2H)-one]: the Ki was 0.009 µM under setting [1] and 0.0001 to 0.01 µM under setting [2].

With `Cc1cccn2c(=O)n(CCc3ccc4ccccc4n3)nc12` [Compound A-2, 8-methyl-2-(2-quinolin-2-ylethyl)[1,2,4]triazolo[4,3-a]pyridin-3(2H)-one], under setting [1], the inhibition constant (Ki) was determined as 0.074 µM.

Regarding `Cc1ccc(-c2cccc3nn(CCc4ccc5ccccc5n4)c(=O)n23)cc1` [Compound A-3, 5-(4-methylphenyl)-2-(2-quinolin-2-ylethyl)[1,2,4]triazolo[4,3-a]pyridin-3(2H)-one], the Ki under setting [1] worked out at 0.017 µM.

With `O=c1n(CCc2ccc3ccccc3n2)nc2cccc(-c3cncs3)n12` [Compound A-4, 2-(2-quinolin-2-ylethyl)-5-(1,3-thiazol-5-yl)[1,2,4]triazolo[4,3-a]pyridin-3(2H)-one], under setting [1], the inhibition constant Ki turned out to be 0.023 µM.

As for `O=c1n(CCc2ccc3ccccc3n2)nc2cccc(-c3ccccc3)n12` [Compound A-5, 5-phenyl-2-(2-quinolin-2-ylethyl)[1,2,4]triazolo[4,3-a]pyridin-3(2H)-one], under setting [1], the Ki worked out at 0.02 µM.

For the molecule `O=c1n(CCc2ccc3ccccc3n2)nc2cccc(N3CCCCC3)n12` [Compound A-6, 5-piperidin-1-yl-2-(2-quinolin-2-ylethyl)[1,2,4]triazolo[4,3-a]pyridin-3(2H)-one], the inhibitory constant (Ki) under setting [1] stood at 0.019 µM.

Turning to `O=c1n(CCc2ccc3ccccc3n2)nc2cccc(NCc3cccnc3)n12` [Compound A-7, 5-[(pyridin-3-ylmethyl)amino]-2-(2-quinolin-2-ylethyl)[1,2,4]triazolo[4,3-a]pyridin-3(2H)-one], under setting [1], the inhibitory constant (Ki) is 0.012 µM.

For `CC(C)(O)c1cccc2nn(CCc3ccc4ccccc4n3)c(=O)n12` [Compound A-8, 5-(1-hydroxy-1-methylethyl)-2-(2-quinolin-2-ylethyl)[1,2,4]triazolo[4,3-a]pyridin-3(2H)-one], the Ki under setting [1] is 0.072 µM.

With `Cn1cc(-c2ccccc2)nc1CCn1nc2cccc(-c3ccncc3)n2c1=O` [Compound B-1, 2-[2-(1-methyl-4-phenyl-1H-imidazol-2-yl)ethyl]-5-pyridin-4-yl[1,2,4]triazolo[4,3-a]pyridin-3(2H)-one], the Ki was 0.002 µM under setting [1] and 0.0001 to 0.01 µM under setting [2].
